The source of these data is patent US20240207403A1, “PERSONALIZED IMMUNOTHERAPY USING INTESTINAL METABOLITES” (Evolve Biosystems, Inc., priority 2021, published 2024).

Structures are written as SMILES.

Test [1] concerns the target hydrocarboxylic acid receptor 3 (HCAR3) (Homo sapiens, UniProt P49019). Particulars: bifidobacteria-derived ILA; cited from earlier work.
The next test relates to naïve CD4+ T-cells. Nature of the test: In vitro polarization of naïve CD4+ T-cells with fecal water, ILA or IFNβ, read out by targeted sc-mRNA-seq. It is filed as cell-based, human. The settings on record: for LGALS1 (Galectin-1) in Th0, Th2 and Th17 cells: ILA alone (1 mM) during polarization.
Test [2] has as its system Aryl hydrocarbon Receptor (AhR). Particulars: bifidobacteria-derived ILA; cited from earlier work.
[3] abbreviates: ILA alone (1 mM) instead of fecal water.

Chain of hydrocarboxylic acid receptor 3 (HCAR3) (P49019 whole entry): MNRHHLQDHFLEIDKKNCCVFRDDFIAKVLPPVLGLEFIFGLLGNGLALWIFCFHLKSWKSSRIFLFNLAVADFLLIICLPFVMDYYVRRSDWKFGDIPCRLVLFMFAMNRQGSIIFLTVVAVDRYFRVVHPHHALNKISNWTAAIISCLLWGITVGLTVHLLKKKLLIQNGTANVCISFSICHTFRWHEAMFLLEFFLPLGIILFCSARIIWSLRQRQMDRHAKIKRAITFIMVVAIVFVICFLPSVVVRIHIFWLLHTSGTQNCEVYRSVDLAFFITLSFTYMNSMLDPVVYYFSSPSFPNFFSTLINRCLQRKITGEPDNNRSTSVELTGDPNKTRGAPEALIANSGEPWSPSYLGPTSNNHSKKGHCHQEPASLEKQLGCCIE
Procedure for naïve CD4+ T-cells: To evaluate the cellular states of polarized T-cells, the inventors applied a targeted multiomics approach quantifying 259 mRNA molecules with known functions in T-cells and 10 surface proteins detected by oligo-coupled antibodies (Abseq™, Rhapsody™, BD Biosciences) (Mair et al., 2020).
T-cell polarization experiments. PBMC derived CD3 CD4 CD45RA″ naïve T-cells (CD8/14/19/56 negative) into an enriched culture medium including RPMI 1640+10% FBS+NEAA+1% Pen-strep+55 μM β-mercaptoethanol. Cells are added at a concentration of 2×10^5 cells/ml and pre-washed and resuspended 2.5 ml T-Activator Dynabeads are added to obtain a bead:cell ratio of 1:2. One milliliter of bead/cell suspension was added to 24-well plate and the following polarizing supplements Th0: No cytokines, Th1: IL-12 (50 nanogram (ng)/ml), Anti-human IL-4 antibody (1 μg/ml) Th2: IL-4 (10 ng/ml), Anti-human IFN-γ antibody (1 μg/ml), Th17: IL-6 (50 ng/ml), IL-23 (20 ng/ml), IL-1B (10 ng/ml), TGF-β1 (5 ng/ml), Anti-hum IL-4 (1 μg/ml), Anti-human IFN-γ antibody (1 μg/ml), iTreg: TGF-β1 (5 ng/ml), IL-2 (10 ng/ml) IFN-β: IFN-β (10 ng/ml). Cells are incubated at 37 °C, 5% CO2 humidified incubator for 5 days and harvested.
Targeted transcriptome and protein by BD Rhapsody single cell RNA Sequencing. Polarized T cells in each condition were labeled using BD Single-Cell Multiplexing Kit and BD AbSeq Ab-Oligos reagents strictly following the manufacturers protocol (BD Biosciences). Briefly, cells from each experiment condition were labelled with each sample tag and pooled 18 AbSeqAb-Oligos. Each sample was then washed twice, counted and resuspended in cold BD SampleBuffer, then calculated the cell number in each sample, then pooled the required number of cells from each sample to get approximately 20,000 cells in 620 μl for each cartridge (around 9 samples for each cartridge). After priming the nanowell cartridges, the pooled sample was loaded onto BDRhapsody cartridges and incubated at room temperature. Cell Capture Beads were prepared and then loaded onto the cartridge. According to the manufacturers protocol, cartridges were washed, cells were lysed, and Cell Capture Beads were retrieved and washed prior to performing reverse transcription and treatment with Exonuclease I. cDNA Libraries were prepared using mRNA Targeted, Sample Tag, and BD AbSeq Library Preparation with the BD Rhapsody Targeted mRNA and AbSeq Amplification Kits and protocol. […] Quality and quantity of PCR products were determined by using an Agilent 2100 Bioanalyzer and Qubit Fluorometer using the Qubit dsDNA HS Kit (ThermoFisher). […] Quality of final libraries was assessed by using Agilent Bioanalyzer and quantified using a Qubit Fluorometer. […]

Consider `O=C(O)C(O)Cc1c[nH]c2ccccc12` (stereo not drawn) [ILA, Indole-3-lactic acid], for which the “binding to HCAR3” value in test [1] is “bind”. Further, the “LGALS1 (Galectin-1) in Th0, Th2 and Th17 cells” value with naïve CD4+ T-cells is listed as “strongly upregulated”; in the test on naïve CD4+ T-cells (listed as indole-3-lactic acid), “upregulated”. Further, the “CXCR3 mRNA in Th0, Th2 and Th17 cells” value in the test on naïve CD4+ T-cells (setting [3]) is given as “upregulated”. Moreover, the “granzyme B mRNA in Th0, Th2 and Th17 cells” value with naïve CD4+ T-cells (setting [3]) is “upregulated”. Further, the “binding to AhR” value in test [2] is listed as “bind”.
